Test results published in patent publication US9988399B2, “Bicyclic compounds as ACC inhibitors and uses thereof” (Gilead Apollo, LLC, priority 2013, dated 2018).

Columns and labels:
[1] = molecular target: ACC2 (Homo sapiens, UniProt O00763); experiment: in vitro ACC2 inhibition assay (ADP-Glo); type: biochemical; conditions: 5 nM ACC2, 20 μM ATP, 20 μM acetyl-CoA
Procedure: An exemplary procedure for the in vitro ACC inhibition assay, which can be used to determine the inhibitory action of compounds of the invention toward either ACCT or ACC2, follows. The ADP-Glo™ Kinase Assay kit from Promega is used. The ADP-Glo™ Kinase Assay is a luminescent ADP detection assay to measure enzymatic activity by quantifying the amount of ADP produced during an enzyme reaction. The assay is performed in two steps; first, after the enzyme reaction, an equal volume of ADP-Glo™ Reagent is added to terminate the reaction and deplete the remaining ATP. Second, the Kinase Detection Reagent is added to simultaneously convert ADP to ATP and allow the newly synthesized ATP to be measured using a luciferase/luciferin reaction. Luminescence can be correlated to ADP concentrations by using an ATP-to-ADP conversion curve. The detailed procedure is as follows. 50 μL of the compound being tested (600 uM in DMSO) is added to a 384-well dilution plate. The compound is diluted 1:3 in succession in DMSO for each row for 11 wells. […] is added to 384-well white Optiplate assay plate. 0.5 μL diluted compound solution in each column from step 2 is added to the assay plate, each row containing 2 replicates. For the last 2 rows, add 0.5 μL negative control (DMSO) in one row and 0.5 μL positive control (compound I-97) in the other. The plates are incubated at room temperature for 15 minutes. 5 μL substrate working solution is added to each well to initiate reaction. Final ACC2 reaction concentrations consist of: 5 nM ACC2, 20 μM ATP, 20 μM acetyl-CoA, 12 mM NaHCO3, 0.01% Brij35, 2 mM DTT, 5% DMSO, test compound concentrations: 30 μM, 10 μM, 3.33 μM, 1.11 μM, 0.37 μM, 0.123 μM, 0.0411 μM, 0.0137 μM, 0.00457 μM, 0.00152 μM, and 0.00051 μM. Plates are incubated at room temperature for 60 minutes. 10 μL ADP glo reagent is added. Plates are incubated at room temperature for 40 minutes. 20 μL kinase detection reagent is added. Plates are incubated at room temperature for 40 minutes, then read on a Perkin Elmer EnVision 2104 plate reader for luminescence as Relative Light Units (RLU).
Data for each concentration, as well as the positive and negative controls are averaged, and the standard deviation calculated. Percent inhibition is calculated by the formula: 100×(average negative control−compound)/(average negative control−average positive control). The IC50 for each compound is calculated by fitting the data with a non-linear regression equation: Y=Bottom+(Top-Bottom)/(1+10^((Log IC50−X)*HillSlope)), where X is the log of compound concentration and Y is percent inhibition.

[2] = tested on: ACC1; conditions: ACC1 isolated from rat, mouse, monkey and human; cited from earlier work
[3] = tested on: ACC2; conditions: ACC2 isolated from rat, mouse, monkey and human; cited from earlier work

Chain of ACC2 (Homo sapiens, UniProt O00763) (O00763 whole entry, species assumed): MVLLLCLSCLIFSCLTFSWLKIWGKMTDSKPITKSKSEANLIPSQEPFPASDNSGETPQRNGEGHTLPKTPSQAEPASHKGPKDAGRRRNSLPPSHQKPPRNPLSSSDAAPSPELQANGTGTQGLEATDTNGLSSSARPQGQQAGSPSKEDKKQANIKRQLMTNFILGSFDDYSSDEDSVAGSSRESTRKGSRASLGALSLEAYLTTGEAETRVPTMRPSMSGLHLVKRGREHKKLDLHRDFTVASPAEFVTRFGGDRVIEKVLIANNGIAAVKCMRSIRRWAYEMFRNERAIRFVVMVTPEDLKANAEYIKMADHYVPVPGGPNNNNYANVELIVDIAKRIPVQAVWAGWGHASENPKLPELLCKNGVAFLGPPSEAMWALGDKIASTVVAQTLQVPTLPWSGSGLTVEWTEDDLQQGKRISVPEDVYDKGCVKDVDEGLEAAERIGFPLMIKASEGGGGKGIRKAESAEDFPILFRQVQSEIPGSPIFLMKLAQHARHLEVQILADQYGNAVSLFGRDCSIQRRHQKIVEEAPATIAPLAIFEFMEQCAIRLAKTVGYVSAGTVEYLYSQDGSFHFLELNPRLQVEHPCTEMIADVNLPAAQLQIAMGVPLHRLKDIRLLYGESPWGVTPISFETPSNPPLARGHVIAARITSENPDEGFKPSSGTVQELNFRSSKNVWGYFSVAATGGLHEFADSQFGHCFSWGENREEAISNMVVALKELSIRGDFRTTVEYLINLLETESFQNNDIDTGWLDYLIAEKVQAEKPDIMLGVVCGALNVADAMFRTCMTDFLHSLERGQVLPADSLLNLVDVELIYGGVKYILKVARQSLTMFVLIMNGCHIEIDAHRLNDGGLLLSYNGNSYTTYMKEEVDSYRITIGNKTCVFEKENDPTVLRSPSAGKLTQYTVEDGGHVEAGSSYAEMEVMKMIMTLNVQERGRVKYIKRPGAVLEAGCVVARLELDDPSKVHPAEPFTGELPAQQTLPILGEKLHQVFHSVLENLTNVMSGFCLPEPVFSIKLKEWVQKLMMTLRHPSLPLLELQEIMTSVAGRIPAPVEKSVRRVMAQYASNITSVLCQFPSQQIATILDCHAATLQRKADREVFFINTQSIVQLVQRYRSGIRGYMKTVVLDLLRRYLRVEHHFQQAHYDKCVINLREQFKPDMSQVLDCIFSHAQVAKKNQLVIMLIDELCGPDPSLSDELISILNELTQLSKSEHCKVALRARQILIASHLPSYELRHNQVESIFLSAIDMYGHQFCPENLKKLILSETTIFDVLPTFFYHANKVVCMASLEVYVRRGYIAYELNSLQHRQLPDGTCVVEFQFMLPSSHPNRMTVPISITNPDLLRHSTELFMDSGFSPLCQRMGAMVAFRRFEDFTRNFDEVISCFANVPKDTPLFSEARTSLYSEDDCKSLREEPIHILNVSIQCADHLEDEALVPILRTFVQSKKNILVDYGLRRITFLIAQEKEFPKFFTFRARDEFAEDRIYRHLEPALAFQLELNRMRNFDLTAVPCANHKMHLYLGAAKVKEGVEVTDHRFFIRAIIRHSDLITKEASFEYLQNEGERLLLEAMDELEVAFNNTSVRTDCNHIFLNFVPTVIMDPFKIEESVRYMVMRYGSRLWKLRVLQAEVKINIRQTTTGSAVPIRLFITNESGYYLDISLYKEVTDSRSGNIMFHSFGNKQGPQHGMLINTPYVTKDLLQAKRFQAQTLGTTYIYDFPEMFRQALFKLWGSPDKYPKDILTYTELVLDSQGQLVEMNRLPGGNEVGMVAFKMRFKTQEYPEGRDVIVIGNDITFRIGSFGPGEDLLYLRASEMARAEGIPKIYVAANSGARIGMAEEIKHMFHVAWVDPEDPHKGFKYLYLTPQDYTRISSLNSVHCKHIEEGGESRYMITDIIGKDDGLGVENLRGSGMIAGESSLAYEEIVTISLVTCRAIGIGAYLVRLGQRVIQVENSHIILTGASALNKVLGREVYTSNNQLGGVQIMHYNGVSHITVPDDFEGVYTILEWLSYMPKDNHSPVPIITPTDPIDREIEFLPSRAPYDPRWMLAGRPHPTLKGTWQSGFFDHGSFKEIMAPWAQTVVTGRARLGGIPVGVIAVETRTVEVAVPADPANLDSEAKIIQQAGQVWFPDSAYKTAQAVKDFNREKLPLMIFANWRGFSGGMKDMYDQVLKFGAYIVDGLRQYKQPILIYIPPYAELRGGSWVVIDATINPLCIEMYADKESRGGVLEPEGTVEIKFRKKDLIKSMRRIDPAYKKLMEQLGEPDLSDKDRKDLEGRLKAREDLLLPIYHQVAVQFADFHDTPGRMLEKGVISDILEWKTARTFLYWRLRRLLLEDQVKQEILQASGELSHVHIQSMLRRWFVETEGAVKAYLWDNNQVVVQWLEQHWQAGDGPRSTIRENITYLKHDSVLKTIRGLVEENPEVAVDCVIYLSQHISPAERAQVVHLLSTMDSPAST

Row | IC50 [1] [nM] | SMILES | IC50 [2] [nM] | IC50 [3] [nM]
1 | ≤ 1000 | COc1ccccc1CCc1cn(CC(=O)O)c(=O)c2c(C)c(-c3ncco3)sc12 [Compound I-33, 2-(7-(2-methoxyphenethyl)-3-methyl-2-(oxazol-2-yl)-4-oxothieno[3,2-c]pyridin-5(4H)-yl)acetic acid] | – | –
2 | – | O=C(c1c2ccccc2cc2ccccc12)N1CCC(N2CCC[C@@H](C(=O)N3CCOCC3)C2)CC1 [CP-640186] | ~60 | ~60
3 | 5000 to 20000 | COc1ccccc1CCn1c(=O)n(CC(=O)O)c(=O)c2nc(-c3ncco3)sc21 [Compound I-35, 2-(4-(2-methoxyphenethyl)-2-(oxazol-2-yl)-5,7-dioxo-4,5-dihydrothiazolo[5,4-d]pyrimidin-6(7H)-yl)acetic acid] | – | –
4 | ≤ 1000 | COc1ccccc1CCc1cn(CC(N)=O)c(=O)c2c(C)c(-c3ncco3)sc12 [Compound I-34, 2-(7-(2-methoxyphenethyl)-3-methyl-2-(oxazol-2-yl)-4-oxothieno[3,2-c]pyridin-5(4H)-yl)acetamide] | – | –
5 | 5000 to 20000 | COc1ccccc1CCn1c(=O)n(CC(=O)O)c(=O)c2c1nc(-c1ncco1)n2C [Compound I-36, 2-(3-(2-methoxyphenethyl)-7-methyl-8-(oxazol-2-yl)-2,6-dioxo-2,3,6,7-tetrahydro-1H-purin-1-yl)acetic acid] | – | –
